In patent publication US4064345A, “Cephalosporins derivatives 7-cyclized α-amino-3-heterothio” (Bristol-Myers Company, priority 1976, dated 1977):
Converted amounts (≈) assume the structure as drawn. “Also recorded” adds a separate entry of the source.

How the values were obtained:
S. pneumoniae A9585 = assay: Antibiotic spectrum in nutrient broth (MIC); assay type: cell-based; conditions: Streptococcus pneumoniae, 10^-3 dilution of overnight broth culture, 45% AAB + serum + 50% broth, BL-S1057/BL-S1058 adjusted for 80%/59% content of BL-S643
Source text: (§1) Antibiotic Spectrum of BL-S643 Derivatives in Nutrient Broth
(§2) *45% AAB + serum + 50% broth listed above.
(§3) **Dilution of overnight broth
(§4) ^(1) Adjusted for 80% content of BL-S643.
(§5) ^(2) Adjusted for 59% content of BL-S643.
(§6) In other words, the numerical values are lowered, i.e. improved. This

Str. pyogenes A9604 = assay: Antibiotic spectrum in nutrient broth (MIC); assay type: cell-based; conditions: Streptococcus pyogenes, 10^-3 dilution of overnight broth culture, 45% AAB + serum + 50% broth, BL-S1057/BL-S1058 adjusted for 80%/59% content of BL-S643
Source text: as §1, §2, §3, §4, §5, §6

[1] = Paper chromatograms of rat urine after IM administration (antibiotically active metabolites); assay type: in vivo; conditions: urine 0-2 and 2-4 hours; for Antibiotically active metabolites in rat urine (spots on paper chromatogram): descending chromatography system No. 9
Description: Paper chromatograms were run on rat urine collected between 0 and 2 and between 2 and 4 hours following IM administration of BL-S1057, 1058 and 643, for the detection of antibiotically active metabolites using descending chromatography with system No. 9 (butyl acetaten-butanol:glacial acetic acid:H2 O = 80:15:40:24).

Pr. mirabilis A9900 = assay: Antibiotic spectrum in nutrient broth (MIC); assay type: cell-based; conditions: Proteus mirabilis, 10^-4 dilution, BL-S1057/BL-S1058 adjusted for 80%/59% content of BL-S643
Source text: as §1, §3, §4, §5, §6

Ent. cloacae A9656 = assay: Antibiotic spectrum in nutrient broth (MIC); assay type: cell-based; conditions: Enterobacter cloacae, 10^-4 dilution, BL-S1057/BL-S1058 adjusted for 80%/59% content of BL-S643
Source text: as §1, §3, §4, §5, §6

Ps. aeruginosa A9843A = assay: Antibiotic spectrum in nutrient broth (MIC); assay type: cell-based; conditions: Pseudomonas aeruginosa
Source text: as §1, §3, §4, §5, §6

Pr. morganii A15153 = assay: Antibiotic spectrum in nutrient broth (MIC); assay type: cell-based; conditions: Morganella morganii, 10^-4 dilution, BL-S1057/BL-S1058 adjusted for 80%/59% content of BL-S643
Source text: as §1, §3, §4, §5, §6

Ent. cloacae A9659 = assay: Antibiotic spectrum in nutrient broth (MIC); assay type: cell-based; conditions: Enterobacter cloacae, 10^-4 dilution, BL-S1057/BL-S1058 adjusted for 80%/59% content of BL-S643
Source text: as §1, §3, §4, §5, §6

S. aureus Smith A9537 = assay: Antibiotic spectrum in nutrient broth (MIC); assay type: cell-based; conditions: Staphylococcus aureus, 10^-4 dilution, BL-S1057/BL-S1058 adjusted for 80%/59% content of BL-S643
Source text: as §1, §3, §4, §5, §6

E. coli Juhl A15119 = assay: Antibiotic spectrum in nutrient broth (MIC); assay type: cell-based; conditions: Escherichia coli, JUHLA15119, 10^-4 dilution, BL-S1057/BL-S1058 adjusted for 80%/59% content of BL-S643
Source text: as §1, §3, §4, §5, §6

K. pneumoniae A15130 = assay: Antibiotic spectrum in nutrient broth (MIC); assay type: cell-based; conditions: Klebsiella pneumoniae, 10^-4 dilution, BL-S1057/BL-S1058 adjusted for 80%/59% content of BL-S643
Source text: as §1, §3, §4, §5, §6

K. pneumoniae A9977 = assay: Antibiotic spectrum in nutrient broth (MIC); assay type: cell-based; conditions: Klebsiella pneumoniae, 10^-4 dilution, BL-S1057/BL-S1058 adjusted for 80%/59% content of BL-S643
Source text: as §1, §3, §4, §5, §6

Ser. marcescens A20019 = assay: Antibiotic spectrum in nutrient broth (MIC); assay type: cell-based; conditions: Serratia marcescens, 10^-4 dilution, BL-S1057/BL-S1058 adjusted for 80%/59% content of BL-S643
Source text: as §1, §3, §4, §5, §6

[2] = test system: S. aureus Meth-Res A15097; assay: Antibiotic spectrum in nutrient broth (MIC); assay type: cell-based; conditions: Staphylococcus aureus, 10^-3 dilution, BL-S1057/BL-S1058 adjusted for 80%/59% content of BL-S643
Source text: as §1, §3, §4, §5, §6

S. aureus BX1633 A9606 = assay: Antibiotic spectrum in nutrient broth (MIC); assay type: cell-based; conditions: Staphylococcus aureus, BX1633A9606, nutrient broth, BL-S1057/BL-S1058 adjusted for 80%/59% content of BL-S643
Source text: as §1, §3, §4, §5, §6

Ent. cloacae A9657 = assay: Antibiotic spectrum in nutrient broth (MIC); assay type: cell-based; conditions: Enterobacter cloacae, 10^-4 dilution, BL-S1057/BL-S1058 adjusted for 80%/59% content of BL-S643
Source text: as §1, §3, §4, §5, §6

E. coli A9675 = assay: Antibiotic spectrum in nutrient broth (MIC); assay type: cell-based; conditions: Escherichia coli, 10^-4 dilution, BL-S1057/BL-S1058 adjusted for 80%/59% content of BL-S643
Source text: as §1, §3, §4, §5, §6

Sal. enteritidis A9531 = assay: Antibiotic spectrum in nutrient broth (MIC); assay type: cell-based; conditions: Salmonella enterica, 10^-4 dilution, BL-S1057/BL-S1058 adjusted for 80%/59% content of BL-S643
Source text: as §1, §3, §4, §5, §6

[3] = Paper strip chromatography (hydrolysis to BL-S643); assay type: physicochemical; conditions: 0 and 1 hour at 37° C.; 0.2 mg./ml.
[4] = Liquid chromatography, % hydrolyzed in buffer; assay type: physicochemical; conditions: 1 mg./ml.
Description: f. Liquid chromatography = 100% hydrolyzed in pH 6.1 buffer within 1 hour at room temperature (concentration = 1 mg./ml.)
d. Liquid chromatography (1 mg./ml. in pH 6 buffer)

[5] = Bio-assay (using cefatrizine as the standard); assay type: cell-based
Source text: a. Bio-assay (using cefatrizine as the standard) = 759 mcg./mg.
a. Bio-assay (using cefatrizine as the standard) = 685 mcg./mg.

Solubility in water = assay type: physicochemical
Description: d. Solubility = >400 mg./ml. in water

[6] = SMITHA9537, nutrient broth +50% serum
[7] = SMITHA9537, nutrient broth, no serum

Row | Structure (SMILES) | MIC (S. pneumoniae A9585) [µg/mL] | MIC (Str. pyogenes A9604) [µg/mL] | Antibiotically active metabolites in rat urine (spots on paper chromatogram) [1] | MIC (Pr. mirabilis A9900) [µg/mL] | MIC (Ent. cloacae A9656) [µg/mL] | MIC (Ps. aeruginosa A9843A) [µg/mL] | MIC (Pr. morganii A15153) [µg/mL] | MIC (Ent. cloacae A9659) [µg/mL] | MIC (S. aureus Smith A9537; [6]) [µg/mL] | MIC (S. aureus Smith A9537; [7]) [µg/mL] | MIC (E. coli Juhl A15119) [µg/mL] | MIC (K. pneumoniae A15130) [µg/mL] | MIC (K. pneumoniae A9977) [µg/mL] | MIC (Ser. marcescens A20019) [µg/mL] | MIC [2] [µg/mL] | MIC (S. aureus BX1633 A9606; 10^-2 dilution) [µg/mL] | MIC (S. aureus BX1633 A9606; 10^-3 dilution) [µg/mL] | MIC (Ent. cloacae A9657) [µg/mL] | MIC (E. coli A9675) [µg/mL] | MIC (Sal. enteritidis A9531) [µg/mL] | other results
1 | Cc1nnc(SCC2=C(C(=O)O)N3C(=O)C(NC(=O)[C@H](N)c4ccc(O)cc4)C3SC2)s1 (some centres unmarked) [BL-S643, reference compound] | 0.03 | 0.016 | A single, identical spot | 0.5 (≈ 1.01 µM) | > 125 | > 125 | 16 (≈ 32.4 µM) | 32 (≈ 64.8 µM) | 8 (≈ 16.2 µM) | 0.5 (≈ 1.01 µM) | 1 (≈ 2.03 µM) | 4 (≈ 8.1 µM) | 0.5 (≈ 1.01 µM) | 125 (≈ 253 µM) | 4 (≈ 8.1 µM) | 4 (≈ 8.1 µM) | 1 (≈ 2.03 µM) | 4 (≈ 8.1 µM) | 4 (≈ 8.1 µM) | 0.25 (≈ 0.506 µM) | –
2 | Cc1nnc(SCC2=C(C(=O)O)N3C(=O)C(N4C(=O)[C@@H](c5ccc(O)cc5)NC4c4ccco4)C3SC2)s1 (some centres unmarked) [BL-S1057] | 0.016 | 0.008 | A single, identical spot | 0.5 (≈ 0.875 µM) | > 125 | > 125 | 16 (≈ 28 µM) | 16 (≈ 28 µM) | 8 (≈ 14 µM) | 0.5 (≈ 0.875 µM) | 1 (≈ 1.75 µM) | 4 (≈ 7 µM) | 0.5 (≈ 0.875 µM) | 125 (≈ 219 µM) | 2 (≈ 3.5 µM) | 4 (≈ 7 µM) | 1 (≈ 1.75 µM) | 0.5 (≈ 0.875 µM) | 4 (≈ 7 µM) | 0.25 (≈ 0.437 µM) | Paper strip chromatography zones [3]: Primarily 1 zone at Rf of BL-S643; degraded at 1 h ([4]; within 1 hour, pH 6.1 buffer, room temperature): 100%; Bio-assay [5]: 759 µg/mg; Hydrolysis to parent compound (BL-S643) [1]: complete hydrolysis; solubility (Solubility in water): > 400 mg/mL
3 | Cc1nnc(SCC2=C(C(=O)O)N3C(=O)C(N4C(=O)[C@@H](c5ccc(O)cc5)NC4c4ccc(S(=O)(=O)O)o4)C3SC2)s1 (some centres unmarked) [BL-S1058] | 0.016 | 0.008 | A single, identical spot | 0.5 (≈ 0.767 µM) | > 125 | > 125 | 16 (≈ 24.6 µM) | 16 (≈ 24.6 µM) | 8 (≈ 12.3 µM) | 0.25 (≈ 0.384 µM) | 1 (≈ 1.53 µM) | 2 (≈ 3.07 µM) | 0.5 (≈ 0.767 µM) | 125 (≈ 192 µM) | 2 (≈ 3.07 µM) | 4 (≈ 6.14 µM) | 0.5 (≈ 0.767 µM) | 0.5 (≈ 0.767 µM) | 2 (≈ 3.07 µM) | 0.13 (≈ 0.199 µM) | Paper strip chromatography zones [3]: Primarily 1 zone at Rf of BL-S643; also recorded: evidence of a second zone; % Hydrolyzed ([4]; 0 hours, pH 6 buffer): 25.4%; degraded at 1 h ([4]; 1 hour, pH 6 buffer): 46.5%; degraded at 2 h ([4]; 2 hours, pH 6 buffer): 59%; Bio-assay [5]: 685 µg/mg; Hydrolysis to parent compound (BL-S643) [1]: complete hydrolysis
